≈ marks a conversion by molar mass, not a printed value.
Assays:
Assay in all cases: MIC, broth microdilution
[1] = tested on: E. coli GC 2271; conditions: Escherichia coli, GC2271, E. coli GC 2271
[2] = tested on: S. typhimurium GC 2172; conditions: Salmonella enterica, TYPHIMURIUM, S. typhimurium GC 2172
[3] = tested on: E. coli GC 6465; conditions: Escherichia coli, GC6465, E. coli GC 6465
[4] = tested on: S. aureus GC 6467; conditions: Staphylococcus aureus, GC6467, S. aureus GC 6467
[5] = tested on: E. coli GC 3226; conditions: Escherichia coli, GC3226, E. coli GC 3226
[6] = tested on: S. aureus GC 6469; conditions: Staphylococcus aureus, GC6469, S. aureus GC 6469
[7] = tested on: E. coli GC 2235; conditions: Escherichia coli, GC2235, E. coli GC 2235
[8] = tested on: S. pyogenes GC 4563; conditions: Streptococcus pyogenes, GC4563, S. pyogenes GC 4563
[9] = tested on: S. aureus GC 6466; conditions: Staphylococcus aureus, GC6466, S. aureus GC 6466
[10] = tested on: E. coli GC 4559; conditions: Escherichia coli, GC4559, E. coli GC 4559
[11] = tested on: E. coli GC 2233; conditions: Escherichia coli, GC2233, E. coli GC 2233
[12] = tested on: E. coli GC 1073; conditions: Escherichia coli, GC1073, E. coli GC 1073
[13] = tested on: E. coli GC 2234; conditions: Escherichia coli, GC2234, E. coli GC 2234
[14] = tested on: E. coli GC 2270; conditions: Escherichia coli, GC2270, E. coli GC 2270
[15] = tested on: S. aureus GC 1079; conditions: Staphylococcus aureus, GC1079, S. aureus GC 1079
[16] = tested on: S. agalactiae GC 4564; conditions: Streptococcus agalactiae, GC4564, S. agalactiae GC 4564
[17] = tested on: E. coli GC 2203; conditions: Escherichia coli, GC2203, E. coli GC 2203
Method: Antimicrobial susceptibility testing. The in vitro activities of the antibiotics are determined by the broth microdilution method as recommended by the National Committee for Clinical Laboratory Standards (NCCLS) (1). Mueller-Hinton II broth (MHBII)(BBL Cockeysville, Md.) is the medium employed in the testing procedures. Microtiter plates containing serial dilutions of each antimicrobial agent are inoculated with each organism to yield the appropriate density (10^5 CFU/ml) in a 100 μl final volume. The plates are incubated for 18-22 hours at 35° C. in ambient air. […] Standard Pharmacological Test Procedures
Presented in Tables I-XIII are representative compounds of Formula I which were evaluated against a panel of 40 selected gram-positive and gram-negative bacteria strains by pre-incubation in water, mouse serum or human serum. Representative compounds were first incubated in mouse serum for an hour prior to the in vitro testing against a panel of selected gram-positive and gram-negative bacteria strains. All compounds were also pre-incubated in water for an hour prior to testing as control. Representative compounds of Formula I were incubated in human serum prior to MIC determination.

[18] = tested on: E. coli GC 4560; conditions: Escherichia coli, GC4560, E. coli GC 4560
[19] = tested on: E. faecium GC 4556; conditions: Enterococcus faecium, GC4556, E. faecium GC 4556
[20] = tested on: S. aureus GC 6335; conditions: Staphylococcus aureus, GC6335, S. aureus GC 6335

| Compound | MIC ([1]; Mouse Serum pre-incubation) [µg/mL] | MIC ([1]; Water pre-incubation) [µg/mL] | MIC ([2]; Mouse Serum pre-incubation) [µg/mL] | MIC ([2]; Water pre-incubation) [µg/mL] | MIC ([3]; Mouse Serum pre-incubation) [µg/mL] | MIC ([3]; Water pre-incubation) [µg/mL] | MIC ([4]; Mouse Serum pre-incubation) [µg/mL] | MIC ([4]; Water pre-incubation) [µg/mL] | MIC ([5]; Mouse Serum pre-incubation) [µg/mL] | MIC ([5]; Water pre-incubation) [µg/mL] | MIC ([6]; Mouse Serum pre-incubation) [µg/mL] | MIC ([6]; Water pre-incubation) [µg/mL] | MIC ([7]; Mouse Serum pre-incubation) [µg/mL] | MIC ([7]; Water pre-incubation) [µg/mL] | MIC ([8]; Mouse Serum pre-incubation) [µg/mL] | MIC ([8]; Water pre-incubation) [µg/mL] | MIC ([9]; Mouse Serum pre-incubation) [µg/mL] | MIC ([9]; Water pre-incubation) [µg/mL] | MIC ([10]; Mouse Serum pre-incubation) [µg/mL] | MIC ([10]; Water pre-incubation) [µg/mL] | other results |
| --- | --- | --- | --- | --- | --- | --- | --- | --- | --- | --- | --- | --- | --- | --- | --- | --- | --- | --- | --- | --- | --- |
| CCCCN(CC(=O)Nc1cc(N(C)C)c2c(c1O)C(=O)C1=C(O)[C@]3(O)C(=O)C(C(N)=O)=C(O)[C@@H](N(C)C)[C@@H]3C[C@@H]1C2)C(=O)OCOC(=O)c1ccc(F)cc1 [Example 4, ({[(2-{[(5aR,6aS,7S,10aS)-9-(aminocarbonyl)-4,7-bis(dimethylamino)-1,8,10a,11-tetrahydroxy-10,12-dioxo-5,5a,6,6a,7,10,10a,12-octahydrotetracen-2-yl]amino}-2-oxoethyl)(butyl)amino]carbonyl}oxy)methyl 4-fluorobenzoate] | 0.5 (≈ 0.64 µM) | 64 (≈ 81.9 µM) | 4 (≈ 5.12 µM) | > 64 | 4 (≈ 5.12 µM) | > 64 | 2 (≈ 2.56 µM) | 8 (≈ 10.2 µM) | 2 (≈ 2.56 µM) | 64 (≈ 81.9 µM) | 2 (≈ 2.56 µM) | 16 (≈ 20.5 µM) | 1 (≈ 1.28 µM) | 64 (≈ 81.9 µM) | 0.12 (≈ 0.153 µM) | 0.25 (≈ 0.32 µM) | 0.5 (≈ 0.64 µM) | 2 (≈ 2.56 µM) | 2 (≈ 2.56 µM) | > 64 | MIC ([11]; Mouse Serum pre-incubation): 1 µg/mL (≈ 1.28 µM); MIC ([11]; Water pre-incubation): 64 µg/mL (≈ 81.9 µM); MIC ([12]; Mouse Serum pre-incubation): 1 µg/mL (≈ 1.28 µM); MIC ([12]; Water pre-incubation): > 64 µg/mL; MIC ([13]; Mouse Serum pre-incubation): 1 µg/mL (≈ 1.28 µM); MIC ([13]; Water pre-incubation): 64 µg/mL (≈ 81.9 µM); MIC ([14]; Mouse Serum pre-incubation): 1 µg/mL (≈ 1.28 µM); MIC ([14]; Water pre-incubation): 64 µg/mL (≈ 81.9 µM); MIC ([15]; Mouse Serum pre-incubation): 1 µg/mL (≈ 1.28 µM); MIC ([15]; Water pre-incubation): 4 µg/mL (≈ 5.12 µM); MIC ([16]; Mouse Serum pre-incubation): 0.25 µg/mL (≈ 0.32 µM); MIC ([16]; Water pre-incubation): 0.5 µg/mL (≈ 0.64 µM); MIC ([17]; Mouse Serum pre-incubation): 1 µg/mL (≈ 1.28 µM); MIC ([17]; Water pre-incubation): 64 µg/mL (≈ 81.9 µM); MIC ([18]; Mouse Serum pre-incubation): 0.25 µg/mL (≈ 0.32 µM); MIC ([18]; Water pre-incubation): 8 µg/mL (≈ 10.2 µM); MIC ([19]; Mouse Serum pre-incubation): 1 µg/mL (≈ 1.28 µM); MIC ([19]; Water pre-incubation): 4 µg/mL (≈ 5.12 µM); MIC ([20]; Mouse Serum pre-incubation): 1 µg/mL (≈ 1.28 µM); MIC ([20]; Water pre-incubation): 4 µg/mL (≈ 5.12 µM) |
| CCCN(CC(=O)Nc1cc(N(C)C)c2c(c1O)C(=O)C1=C(O)[C@]3(O)C(=O)C(C(N)=O)=C(O)[C@@H](N(C)C)[C@@H]3C[C@@H]1C2)C(=O)OCOC(=O)c1ccc(C)cc1 [Example 5, ({[(2-{[(5aR,6aS,7S,10aS)-9-(aminocarbonyl)-4,7-bis(dimethylamino)-1,8,10a,11-tetrahydroxy-10,12-dioxo-5,5a,6,6a,7,10,10a,12-octahydrotetracen-2-yl]amino}-2-oxoethyl)(propyl)amino]carbonyl}oxy)methyl 4-methylbenzoate] | 1 (≈ 1.31 µM) | 16 (≈ 20.9 µM) | 8 (≈ 10.5 µM) | > 64 | 8 (≈ 10.5 µM) | > 64 | 2 (≈ 2.62 µM) | 4 (≈ 5.24 µM) | 2 (≈ 2.62 µM) | 32 (≈ 41.9 µM) | 2 (≈ 2.62 µM) | 4 (≈ 5.24 µM) | 1 (≈ 1.31 µM) | 16 (≈ 20.9 µM) | 0.12 (≈ 0.157 µM) | 0.25 (≈ 0.327 µM) | 0.25 (≈ 0.327 µM) | 0.5 (≈ 0.655 µM) | 2 (≈ 2.62 µM) | 32 (≈ 41.9 µM) | MIC ([11]; Mouse Serum pre-incubation): 2 µg/mL (≈ 2.62 µM); MIC ([11]; Water pre-incubation): 32 µg/mL (≈ 41.9 µM); MIC ([12]; Mouse Serum pre-incubation): 2 µg/mL (≈ 2.62 µM); MIC ([12]; Water pre-incubation): 32 µg/mL (≈ 41.9 µM); MIC ([13]; Mouse Serum pre-incubation): 1 µg/mL (≈ 1.31 µM); MIC ([13]; Water pre-incubation): 32 µg/mL (≈ 41.9 µM); MIC ([14]; Mouse Serum pre-incubation): 1 µg/mL (≈ 1.31 µM); MIC ([14]; Water pre-incubation): 16 µg/mL (≈ 20.9 µM); MIC ([15]; Mouse Serum pre-incubation): 2 µg/mL (≈ 2.62 µM); MIC ([15]; Water pre-incubation): 2 µg/mL (≈ 2.62 µM); MIC ([16]; Mouse Serum pre-incubation): 0.5 µg/mL (≈ 0.655 µM); MIC ([16]; Water pre-incubation): 0.5 µg/mL (≈ 0.655 µM); MIC ([17]; Mouse Serum pre-incubation): 1 µg/mL (≈ 1.31 µM); MIC ([17]; Water pre-incubation): 32 µg/mL (≈ 41.9 µM); MIC ([18]; Mouse Serum pre-incubation): 0.5 µg/mL (≈ 0.655 µM); MIC ([18]; Water pre-incubation): 4 µg/mL (≈ 5.24 µM); MIC ([19]; Mouse Serum pre-incubation): 1 µg/mL (≈ 1.31 µM); MIC ([19]; Water pre-incubation): 2 µg/mL (≈ 2.62 µM); MIC ([20]; Mouse Serum pre-incubation): 0.5 µg/mL (≈ 0.655 µM); MIC ([20]; Water pre-incubation): 1 µg/mL (≈ 1.31 µM) |
| CCCN(CC(=O)Nc1cc(N(C)C)c2c(c1O)C(=O)C1=C(O)[C@]3(O)C(=O)C(C(N)=O)=C(O)[C@@H](N(C)C)[C@@H]3C[C@@H]1C2)C(=O)OCOC(=O)c1ccc(OC)cc1 [Example 6, ({[(2-{[(5aR,6aS,7S,10aS)-9-(aminocarbonyl)-4,7-bis(dimethylamino)-1,8,10a,11-tetrahydroxy-10,12-dioxo-5,5a,6,6a,7,10,10a,12-octahydrotetracen-2-yl]amino}-2-oxoethyl)(propyl)amino]carbonyl}oxy)methyl 4-methoxybenzoate] | 1 (≈ 1.28 µM) | 8 (≈ 10.3 µM) | 8 (≈ 10.3 µM) | > 64 | 4 (≈ 5.13 µM) | > 64 | 2 (≈ 2.56 µM) | 4 (≈ 5.13 µM) | 2 (≈ 2.56 µM) | 16 (≈ 20.5 µM) | 2 (≈ 2.56 µM) | 4 (≈ 5.13 µM) | 1 (≈ 1.28 µM) | 8 (≈ 10.3 µM) | 0.25 (≈ 0.321 µM) | 0.25 (≈ 0.321 µM) | 0.25 (≈ 0.321 µM) | 1 (≈ 1.28 µM) | 2 (≈ 2.56 µM) | 16 (≈ 20.5 µM) | MIC ([11]; Mouse Serum pre-incubation): 2 µg/mL (≈ 2.56 µM); MIC ([11]; Water pre-incubation): 16 µg/mL (≈ 20.5 µM); MIC ([12]; Mouse Serum pre-incubation): 2 µg/mL (≈ 2.56 µM); MIC ([12]; Water pre-incubation): 16 µg/mL (≈ 20.5 µM); MIC ([13]; Mouse Serum pre-incubation): 1 µg/mL (≈ 1.28 µM); MIC ([13]; Water pre-incubation): 16 µg/mL (≈ 20.5 µM); MIC ([14]; Mouse Serum pre-incubation): 1 µg/mL (≈ 1.28 µM); MIC ([14]; Water pre-incubation): 8 µg/mL (≈ 10.3 µM); MIC ([15]; Mouse Serum pre-incubation): 2 µg/mL (≈ 2.56 µM); MIC ([15]; Water pre-incubation): 4 µg/mL (≈ 5.13 µM); MIC ([16]; Mouse Serum pre-incubation): 0.5 µg/mL (≈ 0.641 µM); MIC ([16]; Water pre-incubation): 0.5 µg/mL (≈ 0.641 µM); MIC ([17]; Mouse Serum pre-incubation): 2 µg/mL (≈ 2.56 µM); MIC ([17]; Water pre-incubation): 16 µg/mL (≈ 20.5 µM); MIC ([18]; Mouse Serum pre-incubation): 0.25 µg/mL (≈ 0.321 µM); MIC ([18]; Water pre-incubation): 2 µg/mL (≈ 2.56 µM); MIC ([19]; Mouse Serum pre-incubation): 1 µg/mL (≈ 1.28 µM); MIC ([19]; Water pre-incubation): 2 µg/mL (≈ 2.56 µM); MIC ([20]; Mouse Serum pre-incubation): 0.5 µg/mL (≈ 0.641 µM); MIC ([20]; Water pre-incubation): 2 µg/mL (≈ 2.56 µM) |

Reference: patent US20070049564A1 (Wyeth, priority 2005, published 2007)
